Experimental data as given in article PMC4645160, “Targeting kinases with anilinopyrimidines: discovery of N-phenyl-N’-[4-(pyrimidin-4-ylamino)phenyl]urea derivatives as selective inhibitors of class III receptor tyrosine kinase subfamily” (Scientific Reports, 2015).

Key:
[1] = MTD studies (highest not toxic dose); format: in vivo; settings: C57BL, mouse, in vivo; daily ip; read-out: Highest not toxic dose as determined by MTD studies
PDGFRβ = biological target: T1, PDGFRβ (Homo sapiens, UniProt P09619); assay: KinomeScan Kd determination, PDGFRβ; format: binding; settings: for KdRTK/KdKIT, PDGFRβ: Kd PDGFRβ over Kd KIT; for Kd: KinomeScan
T1 construct: purchased DiscoverX (KinomeScan service)
Experimental: The compounds were evaluated using the KinomeScan™ platform (http://www.discoverx.com/services/drug-discovery-development-services/kinase-profiling/kinomescan), that measures the ability of the test compound to disrupt the complex between a high affinity ATP-mimic probe immobilized on a solid support and the kinase of interest. The KinomeScan is a very helpful technology for the fast and reliable screening of a number of compounds against a wide and customizable panel of kinases. Besides, it is not based on the use of hazardous radioactive ^32P-ATP and has a very low rate of false positive (<1%)[44]. The screening platform outputs a “Percent of Control” (POC) value, statistically correlated to the dissociation constant (Kd) value (http://www.discoverx.com/tools-resources/leadhunter-study-reports-data-analysis), for each pair of kinase/ligand. The POC is calculated as reported in equation (1): […]
The ability of compounds 19 and 27 to bind the class III RTK members was measured (Table 2; see also Figs S3 and S4 for dose/response curves).
Figure S3. Dose/response curve for compound 19 against tested kinases for Kd determination. The amount of kinase measured by qPCR (Signal; y-axis) is plotted against the corresponding compound concentration in nM in log10 scale (x-axis). Data points marked with an "x" were not used for Kd determination.
(1 picture or pasted object on this page, not shown here)
Figure S4. Dose/response curve for compound 27 against tested kinases for Kd

LoVo cells = assay: MTT cytotoxicity assay, LoVo colon carcinoma cells; format: cell-based; settings: Homo sapiens, MTT test, 72 h, read-out: LoVo IC50 (μM) ± SD
Experimental: (§1) The cytotoxic profile of 19 and 27 was assessed on a wider panel of human tumor cell lines including also examples of breast (MCF-7), cervical (A431), colorectal (HCT-15), and ovarian (2008) cancers as well as melanoma (A375), besides lung (A549) and pancreatic (BxPC3) cancer cells. IC50 values, calculated from the dose-survival curves obtained after 72 h of drug treatment from the MTT test, are reported in Table 2. […] Both compounds were endowed with a cytotoxic potency higher than that of SU, eliciting IC50 values in the low micromolar range.
(§2) All compounds, except derivative 27, were dissolved in DMSO just before the experiment, and a calculated amount of drug solution was added to the cell growth medium to a final solvent concentration of 0.5%, which had no discernible effect on cell killing. Compound 27 was dissolved in a 0.9% NaCl solution just before the experiment.
(§3) Human lung (A549), breast (MCF-7), pancreas (BxPC3), and colon (LoVo) carcinoma cell lines along with melanoma (A375) were obtained from American Type Culture Collection (ATCC, Rockville, MD). Human non-tumor embryonic kidney HEK293 cells were obtained from European Collection of Cell Cultures (ECACC, Salisbury, UK). Human cervical carcinoma A431cells were kindly provided by Prof. F. Zunino (Division of Experimental Oncology B, Istituto Nazionale dei Tumori, Milan, Italy). Human ovarian cancer 2008 cells were kindly provided by Prof. G. Marverti (Dept. of Biomedical Science of Modena University, Italy). […]
(§4) The growth inhibitory effect towards human cell lines was evaluated by means of MTT (tetrazolium salt reduction) assay. […] After overnight incubation, the inhibition of cell growth induced by the tested complexes was detected by measuring the absorbance of each well at 570 nm using a Bio-Rad 680 microplate reader (Bio-Rad, Hercules, CA). Mean absorbance for each drug dose was expressed as a percentage of the control untreated well absorbance and plotted vs drug concentration.

2008 cells = assay: MTT cytotoxicity assay, 2008 ovarian cancer cells; format: cell-based; settings: Homo sapiens; MTT test, 72 h; read-out: 2008 IC50 (μM) ± SD
Experimental: as §1, §2, §3, §4

MCF-7 cells = assay: MTT cytotoxicity assay, MCF-7 breast cancer cells; format: cell-based; settings: Homo sapiens, MCF7; MTT test, 72 h; read-out: MCF-7 IC50 (μM) ± SD
Experimental: as §1, §2, §3, §4

T1 sequence (P09619 33-1106): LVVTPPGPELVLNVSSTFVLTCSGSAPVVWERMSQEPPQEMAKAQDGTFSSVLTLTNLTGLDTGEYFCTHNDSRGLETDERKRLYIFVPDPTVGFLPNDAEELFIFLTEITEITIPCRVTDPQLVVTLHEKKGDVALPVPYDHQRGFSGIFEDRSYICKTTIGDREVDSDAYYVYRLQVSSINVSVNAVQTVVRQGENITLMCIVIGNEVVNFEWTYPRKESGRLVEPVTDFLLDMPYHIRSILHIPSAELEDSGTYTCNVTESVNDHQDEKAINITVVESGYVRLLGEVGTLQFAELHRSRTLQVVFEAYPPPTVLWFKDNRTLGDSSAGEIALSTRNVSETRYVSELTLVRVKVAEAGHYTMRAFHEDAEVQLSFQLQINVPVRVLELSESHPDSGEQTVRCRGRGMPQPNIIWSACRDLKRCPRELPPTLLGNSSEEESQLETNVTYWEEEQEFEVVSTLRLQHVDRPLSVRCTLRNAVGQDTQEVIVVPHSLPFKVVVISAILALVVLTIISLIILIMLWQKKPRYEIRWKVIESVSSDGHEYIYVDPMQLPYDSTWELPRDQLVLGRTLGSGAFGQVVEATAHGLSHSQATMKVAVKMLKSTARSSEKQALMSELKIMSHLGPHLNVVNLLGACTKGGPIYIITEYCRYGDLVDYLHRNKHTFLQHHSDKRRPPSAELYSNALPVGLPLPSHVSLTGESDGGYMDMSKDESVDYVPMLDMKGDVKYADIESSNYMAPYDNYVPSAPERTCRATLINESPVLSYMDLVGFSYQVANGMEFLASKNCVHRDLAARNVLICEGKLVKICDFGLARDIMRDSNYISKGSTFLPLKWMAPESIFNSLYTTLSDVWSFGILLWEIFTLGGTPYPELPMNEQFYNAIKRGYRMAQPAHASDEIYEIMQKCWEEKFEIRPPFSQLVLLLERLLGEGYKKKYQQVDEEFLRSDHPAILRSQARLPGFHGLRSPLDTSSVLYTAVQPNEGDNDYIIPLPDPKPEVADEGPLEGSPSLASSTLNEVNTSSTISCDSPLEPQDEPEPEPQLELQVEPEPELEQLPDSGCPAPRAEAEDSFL

SMILES: O=C(CN1CCOCC1)Nc1cccc(-c2cc(Nc3ccc(NC(=O)Nc4ccccc4)cc3)ncn2)c1 [Compound 27]
- MTD [1]: 7.5 mg/kg
- Potency improvement Kd19/Kd27, PDGFRβ (PDGFRβ; 27 versus 19): 1.1
- KdRTK/KdKIT, PDGFRβ (PDGFRβ): 7
- Kd (PDGFRβ): 70 nM
- IC50 (LoVo cells): 7.76 ± 1.28 µM
- IC50 (2008 cells): 1.82 ± 0.73 µM
- IC50 (MCF-7 cells): 1.55 ± 0.75 µM

SMILES: O=C(Nc1ccccc1)Nc1ccc(Nc2cc(-c3ccccc3)ncn2)cc1 [Compound 19]
- KdRTK/KdKIT, PDGFRβ (PDGFRβ): 4
- Kd (PDGFRβ): 80 nM
- IC50 (LoVo cells): 7.45 ± 1.53 µM
- IC50 (2008 cells): 1.98 ± 0.75 µM
- IC50 (MCF-7 cells): 1.23 ± 0.89 µM
